Results as given in patent US11912717B2 (Shenzhen Tenver Biopharm Co., Ltd., priority 2018, dated 2024).

Experiment: Stability test (accelerated experiment, sealed PE/aluminum foil bags, 40±2° C., humidity 75±5%)
Conditions: for Purity by HPLC / Appearance / XRPD: 40±2° C., humidity 75±5%
Method: X-ray powder diffractometer model: Rigaku D/max-2200 Cu target; operation condition: scanning speed, 4°/min, scanning step width, 0.01°.
High performance liquid chromatograph, Agilent1100; Chromatographic column: C18, 4.6 mm×250 mm; mobile phase, acetonitrile:0.1% phosphoric acid aqueous solution=65:35 (v:v); Detection wavelength: 240 nm; flow rate, 1.0 ml/min; Column temperature: 25° C.
The bags were electrothermally sealed, and then placed into aluminum foil bags which were also electrothermally sealed.

tenvermectin B [crystal form I of tenvermectin B]
Purity by HPLC (first month): 99.0 | Appearance (first month, cell wraps: White / crystalline / powder): White | XRPD (first month, cell wraps: crystal / form I): crystal | Purity by HPLC (initial data): 99.1 | XRPD (initial data, cell wraps over 2 lines: crystal / form I): crystal | Appearance (initial data, cell wraps over 3 lines: White / crystalline / powder): White | Purity by HPLC (second month): 99.1 | Appearance (second month, cell wraps: White / crystalline / powder): White | XRPD (second month, cell wraps: crystal / form I): crystal | Purity by HPLC (sixth month): 98.9 | Appearance (sixth month, cell wraps: White / crystalline / powder): White | XRPD (sixth month, cell wraps: crystal / form I): crystal | crystal transformation phenomenon in the stability experiment (stability experiment): does not occur | Purity by HPLC (third month): 98.9 | Appearance (third month, cell wraps: White / crystalline / powder): White | XRPD (third month, cell wraps: crystal / form I): crystal
